Laboratory results: ChEMBL document CHEMBL2029205 (Bioorg Med Chem Lett, 2012)

Experiments:
[1] = biological target: T1, Tyrosinase (Agaricus bisporus, UniProt O42713); assay: Inhibition of mushroom tyrosinase using L-DOPA as substrate after 20 mins by spectrophotometry
T1 sequence (O42713 whole entry): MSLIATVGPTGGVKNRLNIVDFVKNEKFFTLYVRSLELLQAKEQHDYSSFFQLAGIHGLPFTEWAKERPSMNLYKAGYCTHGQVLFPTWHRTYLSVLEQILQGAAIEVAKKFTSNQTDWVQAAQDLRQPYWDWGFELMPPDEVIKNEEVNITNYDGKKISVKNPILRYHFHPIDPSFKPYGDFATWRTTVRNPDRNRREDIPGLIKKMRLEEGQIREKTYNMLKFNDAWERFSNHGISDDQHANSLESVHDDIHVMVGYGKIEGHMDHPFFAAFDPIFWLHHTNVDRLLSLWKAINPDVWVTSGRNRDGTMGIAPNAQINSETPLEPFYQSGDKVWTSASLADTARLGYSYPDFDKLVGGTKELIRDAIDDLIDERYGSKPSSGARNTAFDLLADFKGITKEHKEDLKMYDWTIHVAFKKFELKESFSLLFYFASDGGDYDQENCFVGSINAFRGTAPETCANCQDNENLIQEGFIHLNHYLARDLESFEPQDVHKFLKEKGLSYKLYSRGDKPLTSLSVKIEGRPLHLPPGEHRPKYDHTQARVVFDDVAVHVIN

[2] = biological target: T1, Tyrosinase
Description: Inhibition of mushroom tyrosinase using L-tyrosine as substrate after 20 mins by spectrophotometry

[3] = cells; settings: Mus musculus, Melan-a, 96 h
Description: Cytotoxicity against mouse Melan-a cells after 4 days by crystal voilet method

[4] = in vitro; settings: mouse, Melan-a cells
Description: Ratio of IC50 for cytotoxicity against mouse Melan-a cells to IC50 for depigmentation in mouse Melan-a cells

IC50 [1] [µM]	IC50 [2] [µM]	IC50 [3] [µM]	SMILES	selectivity ratio [4]
1.8	2.8	> 80	O=C(OCc1cc(=O)c(O)co1)c1ccc(O)cc1	–
2.05	2.03	> 80	COc1ccc(C(=O)OCc2cc(=O)c(O)co2)cc1	–
3.61	3.51	> 80	O=C(OCc1cc(=O)c(O)co1)c1ccc(O)cc1O	–
20.1	10.6	> 80	COc1ccc(C(=O)OCc2cc(=O)c(O)co2)c(O)c1	–
4.8	3.23	> 80	COc1ccc(C(=O)OCc2cc(=O)c(O)co2)c(OC)c1	–
> 200	> 200	19	COc1ccc(C(=O)OCc2cc(=O)c(O)co2)cc1C12CC3CC(CC(C3)C1)C2	5.55
> 200	> 200	27.6	O=C(OCc1cc(=O)c(O)co1)c1ccc(O)c(C23CC4CC(CC(C4)C2)C3)c1	7.25
> 200	> 200	27.4	O=C(OCc1cc(=O)c(O)co1)c1cc(C23CC4CC(CC(C4)C2)C3)c(O)cc1O	3.41
> 200	> 200	26.8	COc1cc(O)c(C(=O)OCc2cc(=O)c(O)co2)cc1C12CC3CC(CC(C3)C1)C2	3
> 200	> 200	17.6	COc1cc(OC)c(C23CC4CC(CC(C4)C2)C3)cc1C(=O)OCc1cc(=O)c(O)co1	4.39
–	–	31.3	COc1ccc(C(=O)OCc2cc(=O)c(OC)co2)cc1C12CC3CC(CC(C3)C1)C2	6.54
–	–	23.8	COc1coc(COC(=O)c2ccc(O)c(C34CC5CC(CC(C5)C3)C4)c2)cc1=O	6.16
–	10	15	Oc1ccc(O)cc1 [HYDROQUINONE]	3.56
